Data taken from US8129398B2 (priority 2008, dated 2012).

How the values were obtained:
[1] = biological target: T1, HIV-integrase (Human immunodeficiency virus type 1 group M subtype B, UniProt P12497); experiment: HIV-Integrase Inhibition Activity (SPA bead integration assay with P33 labeled target DNA); type: biochemical; settings: for IC50: recombinant integrase, class symbols, read-out: in vitro activity; for Ki: representative compounds
T1 construct: Recombinant integrase (0.26 ng) was incubated with the beads
Method in brief: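 Biotinylated substrate DNA on streptavidin SPA beads loaded with recombinant integrase (90 min, 37° C), washed, then inhibitor plus 0.1 fmol P33-labeled target DNA added. Reaction stopped with 10 mM EDTA; integration measured as CPM by scintillation, giving IC50 ranks.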

[2] = tested on: recombinant NL-Rluc virus; experiment: Inhibition of HIV replication (recombinant NL-Rluc virus, Renilla luciferase reporter); type: cell-based; settings: Human immunodeficiency virus 1

O=C(NC12CCC(Cn3c1nc(C(=O)NCc1ccc(F)cc1)c(O)c3=O)OC2)OCc1ccccc1 (stereo not drawn) [Example 219, Benzyl (2-((4-fluorobenzyl)carbamoyl)-3-hydroxy-4-oxo-6,7,8,9-tetrahydro-7,10-(epoxymethano)pyrimido[1,2-a]azepin-10(4H)-yl)carbamate]
IC50 [1]: 10 to 100 nM
Ki [1]: 12 nM
EC50 [2]: 37 nM

Cc1noc(C)c1S(=O)(=O)NC12CCC(CC1)Cn1c2nc(C(=O)NCc2ccc(F)cc2)c(O)c1=O [Example 392]
IC50 [1]: > 100 nM
Ki [1]: 467 nM
EC50 [2]: 618 nM

Cc1cc(CNC(=O)c2nc3n(c(=O)c2O)CC2CCC3(NS(=O)(=O)C3CC3)CC2)ccc1F [Example 42, 10-((Cyclopropylsulfonyl)amino)-N-(4-fluoro-3-methylbenzyl)-3-hydroxy-4-oxo-4,6,7,8,9,10-hexahydro-7,10-ethanopyrimido[1,2-a]azepine-2-carboxamide]
IC50 [1]: < 10 nM
Ki [1]: 1 nM
EC50 [2]: 1 nM

CN(C)C(=O)C(=O)NC12CCC(CC1)Cn1c2nc(C(=O)N[C@H]2C[C@@H]2c2ccccc2)c(O)c1=O [Example 357]
IC50 [1]: < 10 nM
Ki [1]: 9 nM
EC50 [2]: 6 nM

O=C(NC12CCC(CC1)Cn1c2nc(C(=O)NCc2ccc(F)cc2)c(O)c1=O)c1cccnc1 [Example 33, N-(4-Fluorobenzyl)-3-hydroxy-4-oxo-10-((3-pyridinylcarbonyl)amino)-4,6,7,8,9,10-hexahydro-7,10-ethanopyrimido[1,2-a]azepine-2-carboxamide]
IC50 [1]: < 10 nM
Ki [1]: 1 nM
EC50 [2]: 2 nM

O=C(NC12CCC(CC1)Cn1c2nc(C(=O)NCc2ccc(F)cc2)c(O)c1=O)C(=O)c1c[nH]c2c(-n3cncn3)ncc(F)c12 [Example 48, N-(4-Fluorobenzyl)-10-(((4-fluoro-7-(1H-1,2,4-triazol-1-yl)-1H-pyrrolo[2,3-c]pyridin-3-yl)(oxo)acetyl)amino)-3-hydroxy-4-oxo-4,6,7,8,9,10-hexahydro-7,10-ethanopyrimido[1,2-a]azepine-2-carboxamide]
IC50 [1]: < 10 nM
Ki [1]: 1 nM
EC50 [2]: 4 nM

Cc1cc(CNC(=O)c2nc3n(c(=O)c2O)CC2CCC3(NS(=O)(=O)CC3CC3)CC2)ccc1F [Example 306, 7,10-Ethanopyrimido[1,2-a]azepine-2-carboxamide, 10-[[(cyclopropylmethyl)sulfonyl]amino]-N-[(4-fluoro-3-methylphenyl)methyl]-4,6,7,8,9,10-hexahydro-3-hydroxy-4-oxo-]
IC50 [1]: > 100 nM
Ki [1]: 860 nM
EC50 [2]: 385 nM

CS(=O)(=O)N1CC[C@H]1C(=O)NC12CCC(CC1)Cn1c2nc(C(=O)NCc2ccc(F)cc2)c(O)c1=O [Example 268, 7,10-Ethanopyrimido[1,2-a]azepine-2-carboxamide, N-[(4-fluorophenyl)methyl]-4,6,7,8,9,10-hexahydro-3-hydroxy-10-[[[(2S)-1-(methylsulfonyl)-2-azetidinyl]carbonyl]amino]-4-oxo-]
IC50 [1]: < 10 nM

O=C1CC[C@@H](C(=O)NC23CCC(CC2)Cn2c3nc(C(=O)NCc3ccc(F)cc3)c(O)c2=O)N1 [Example 46, N-(4-Fluorobenzyl)-3-hydroxy-4-oxo-10-((5-oxoprolyl)amino)-4,6,7,8,9,10-hexahydro-7,10-ethanopyrimido[1,2-a]azepine-2-carboxamide]
IC50 [1]: < 10 nM

CC1(C)[C@@H]2CC[C@@]1(C)[C@@H](N)c1nc(C(=O)NCc3ccc(F)cc3)c(O)c(=O)n1C2 [Example 182, (7S,10R,11R)-11-Amino-N-(4-fluorobenzyl)-3-hydroxy-10,12,12-trimethyl-4-oxo-6,7,8,9,10,11-hexahydro-4H-7,10-methanopyrimido[1,2-a]azocine-2-carboxamide]
IC50 [1]: > 100 nM
